Test results: patent publication US10206937B2, “Boronic acid derivatives and therapeutic uses thereof” (Qpex Biopharma, Inc., priority 2014, dated 2019)

System: strains of Enterobacteriaceae producing various carbapenemases (class A, D and B; 104 strains)
Assay: Antibiotics potentiation by Compound 27 (MIC; meropenem, doripenem, ertapenem, cefepime)
Assay type: cell-based
Details: + 27 = with Compound 27 at fixed 4 μg/ml

C[C@@H](O)[C@H]1C(=O)N2C(C(=O)O)=C(S[C@@H]3CN[C@H](C(=O)Nc4cccc(C(=O)O)c4)C3)[C@H](C)[C@H]12 [E] was tested, and the MIC (strain KP1081 Klebsiella pneumoniae (NDM-1, TEM-1, SHV-11, CMY-6, CTX-M-15)) was “Z (MIC of greater than 10 μg/mL)”, the MIC (strain KP1082 Klebsiella pneumoniae (KPC-2, SHV-1)) was “Z (MIC of greater than 10 μg/mL)” and the MIC (strain KP1083 Klebsiella pneumoniae (KPC-3, SHV-1, TEM-1)) was “Z (MIC of greater than 10 μg/mL)”. The MIC (strain KP1084 Klebsiella pneumoniae (KPC-3, SHV-11, TEM-1)) was “Z (MIC of greater than 10 μg/mL)”, the MIC (strain KP1086 Klebsiella pneumoniae (OXA-48, CTX-M-15, TEM, SHV)) was “Z (MIC of greater than 10 μg/mL)” and the MIC (strain KP1087 Klebsiella pneumoniae (KPC-2, CTX-M-15, SHV-11, TEM-1)) was “Z (MIC of greater than 10 μg/mL)”. The MIC (strain KP1088 Klebsiella pneumoniae (KPC-3, SHV-11, TEM-1)) was “Z (MIC of greater than 10 μg/mL)”, the MIC (strain KP1089 Klebsiella pneumonias (OXA-181, CTX-M-15, TEM, SHV)) was “Z (MIC of greater than 10 μg/mL)” and the MIC (strain KP1095 Klebsiella pneumoniae (KPC-2 TEM-1 SHV-1)) was “Y (MIC of 1 μg/mL to 10 μg/mL)”. For the same compound, the MIC (strain KP1096 Klebsiella pneumoniae (KPC-2 TEM-181 SHV-11)) was “Z (MIC of greater than 10 μg/mL)”, the MIC (strain KP1097 Klebsiella pneumonias (IMP-1)) was “Z (MIC of greater than 10 μg/mL)” and the MIC (strain KP1098 Klebsiella pneumoniae (IMP-26)) was “Z (MIC of greater than 10 μg/mL)”. For the same compound, the MIC (strain KP1104 Klebsiella pneumoniae (KPC TEM)) was “Z (MIC of greater than 10 μg/mL)”, the MIC (strain KP1105 Klebsiella pneumoniae (KPC TEM SHV)) was “Z (MIC of greater than 10 μg/mL)” and the MIC (strain KP1159 Klebsiella pneumoniae (SHV-1(2b); CTX-M-15; IMP-4)) was “Z (MIC of greater than 10 μg/mL)”. For the same compound, the MIC (strain KP1160 Klebsiella pneumoniae (SHV-28(2be); CTX-M-15; IMP-26)) was “Z (MIC of greater than 10 μg/mL)”, the MIC (strain KP1161 Klebsiella pneumoniae (NDM-1)) was “Z (MIC of greater than 10 μg/mL)” and the MIC (strain KP1164 Klebsiella pneumoniae (SHV-12(2be); VIM-1)) was “Z (MIC of greater than 10 μg/mL)”. For the same compound, the MIC (strain KP1165 Klebsiella pneumoniae (SHV-11(2b); CTX-M-15; VIM-27)) was “Z (MIC of greater than 10 μg/mL)”, the MIC (strain KP1166 Klebsiella pneumoniae (SHV-5(2be); VIM-26)) was “Z (MIC of greater than 10 μg/mL)” and the MIC (strain KP1167 Klebsiella pneumoniae (SHV-12(2be); VIM-1)) was “Y (MIC of 1 μg/mL to 10 μg/mL)”. For the same compound, the MIC (strain KP1169 Klebsiella pneumoniae (SHV-11(2b); VIM-1)) was “Y (MIC of 1 μg/mL to 10 μg/mL)”, the MIC (strain KP1170 Klebsiella pneumoniae (SHV-11(2b); CTX-M-15; NDM-1)) was “Z (MIC of greater than 10 μg/mL)” and the MIC (strain KP1172 Klebsiella pneumoniae (SHV-31(2be); DHA-1; VIM-1)) was “Y (MIC of 1 μg/mL to 10 μg/mL)”. For the same compound, the MIC (strain KP1173 Klebsiella pneumoniae (TEM-33(2br); CTX-M-15; IMP-1)) was “Y (MIC of 1 μg/mL to 10 μg/mL)”, the MIC (strain KP1174 Klebsiella pneumoniae (CTX-M-14; IMP-1)) was “Z (MIC of greater than 10 μg/mL)” and the MIC (strain KP1175 Klebsiella pneumoniae (SHV-OSBL(2b); VIM-1)) was “Z (MIC of greater than 10 μg/mL)”. For the same compound, the MIC (strain KP1177 Klebsiella pneumoniae (SHV-OSBL(2b), TEM-OSBL(2b); CTX-M-15; NDM-1)) was “Z (MIC of greater than 10 μg/mL)”, the MIC (strain KP1178 Klebsiella pneumoniae (SHV-OSBL(2b;) TEM-OSBL(2b); CTX-M-15; NDM-1)) was “Z (MIC of greater than 10 μg/mL)” and the MIC (strain KP1179 Klebsiella pneumoniae (SHV-12(2be), TEM-OSBL(2b); CTX-M-15; NDM-7)) was “Z (MIC of greater than 10 μg/mL)”. The MIC (strain KP1180 Klebsiella pneumoniae (SHV-OSBL(2b), TEM-OSBL(2b); CTX-M-15; DHA-1; IMP-26)) was “Y (MIC of 1 μg/mL to 10 μg/mL)”, the MIC (strain KP1181 Klebsiella pneumoniae (SHV-OSBL(2b); CTX-M-15; IMP-26)) was “Y (MIC of 1 μg/mL to 10 μg/mL)” and the MIC (strain KP1183 Klebsiella pneumoniae (SHV-OSBL(2b), TEM-OSBL(2b); CTX-M-15; NDM-1)) was “Z (MIC of greater than 10 μg/mL)”. For the same compound, the MIC (strain KP1184 Klebsiella pneumoniae (SHV-OSBL(2b); IMP-1)) was “Y (MIC of 1 μg/mL to 10 μg/mL)”, the MIC (strain KP1185 Klebsiella pneumoniae (SHV-OSBL(2b), TEM-OSBL(2b); IMP-4)) was “Z (MIC of greater than 10 μg/mL)” and the MIC (strain KP1186 Klebsiella pneumoniae (CTX-M-15; NDM-1)) was “Z (MIC of greater than 10 μg/mL)”. For the same compound, the MIC (strain KP1187 Klebsiella pneumoniae (SHV-55(2be), TEM-OSBL(2b); CTX-M-15; NDM-1)) was “Z (MIC of greater than 10 μg/mL)”, the MIC (strain KP1188 Klebsiella pneumoniae (SHV-OSBL(2b); CTX-M-15; NDM-1)) was “Z (MIC of greater than 10 μg/mL)” and the MIC (strain KP1189 Klebsiella pneumoniae (TEM-OSBL(2b); CTX-M-15; CTX-M-27; NDM-1)) was “Z (MIC of greater than 10 μg/mL)”. For the same compound, the MIC (strain KPM1123 Klebsiella pneumoniae (KPC-2 TEM SHV)) was “Z (MIC of greater than 10 μg/mL)”, the MIC (strain KPM1202 Klebsiella pneumoniae (KPC SHV TEM)) was “Z (MIC of greater than 10 μg/mL)” and the MIC (strain KPM1203 Klebsiella pneumoniae (KPC SHV TEM)) was “Y (MIC of 1 μg/mL to 10 μg/mL)”. For the same compound, the MIC (strain KPM1344 Klebsiella pneumoniae (VIM-1)) was “Y (MIC of 1 μg/mL to 10 μg/mL)”, the MIC (strain KPM1345 Klebsiella pneumoniae (VIM-1 SHV)) was “Y (MIC of 1 μg/mL to 10 μg/mL)” and the MIC (strain KPM1347 Klebsiella pneumoniae (NDM-1 SHV CTX-M-15)) was “Z (MIC of greater than 10 μg/mL)”. For the same compound, the MIC (strain KX1017 Klebsiella oxytoca (KPC-2, OXA-2, SHV-30)) was “Z (MIC of greater than 10 μg/mL)”, the MIC (strain KX1018 Klebsiella oxytoca (KPC-2, SHV-40, OXY-1)) was “Y (MIC of 1 μg/mL to 10 μg/mL)” and the MIC (strain KX1019 Klebsiella oxytoca (KPC-2, OXA-2)) was “Z (MIC of greater than 10 μg/mL)”. The MIC (strain PM1024 Proteus mirabilis (TEM-1(2b); CMY-16; VIM-1)) was “Y (MIC of 1 μg/mL to 10 μg/mL)”, the MIC (strain PM1026 Proteus mirabilis (DHA-1; IMP-26)) was “Y (MIC of 1 μg/mL to 10 μg/mL)” and the MIC (strain PM1027 Proteus mirabilis (VIM-5)) was “Z (MIC of greater than 10 μg/mL)”. For the same compound, the MIC (strain SM1023 Serratia marcescens (VIM-4)) was “Z (MIC of greater than 10 μg/mL)”.
